Assay results from PubChem BioAssay AID256 (DTP/NCI, 2004).
Several values for one entry are separate records, joined by “and”; a condition that tells them apart may be missing. Identical values can stand only once. Inconclusive results and toxic doses are left out. Rule for the calls: active = survival T/C of 150% or more; inactive = T/C below 125% in these data.

Test system: CD2F1 mice, L1210 leukemia ip, survival T/C
Test: NCI In Vivo Anticancer Drug Screen. Data for tumor model L1210 Leukemia (intraperitoneal) in CD2F1 (CDF1) mice
Settings: higher = longer survival
Summary of the method: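 Tumor-bearing mice (transplanted tumor) were split into treated and vehicle control groups, and the measured endpoint of each treated group was divided by that of its vehicle controls.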

[1] = endpoint: mean survival time, dose: 5.0 mg/kg/injection, schedule: Q01DX009 (ip), vehicle: saline with Tween-80
[2] = endpoint: mean survival time, dose: 100.0 mg/kg/injection, schedule: Q01DX001 (ip), vehicle: saline with Tween-80
[3] = endpoint: mean survival time, dose: 200.0 mg/kg/injection, schedule: Q01DX001 (ip), vehicle: saline with Tween-80
[4] = endpoint: mean survival time, dose: 400.0 mg/kg/injection, schedule: Q01DX001 (ip), vehicle: saline with Tween-80
[5] = endpoint: mean survival time, dose: 25.0 mg/kg/injection, schedule: Q01DX009 (ip), vehicle: saline
[6] = endpoint: mean survival time, dose: 50.0 mg/kg/injection, schedule: Q01DX009 (ip), vehicle: saline
[7] = endpoint: mean survival time, dose: 100.0 mg/kg/injection, schedule: Q01DX009 (ip), vehicle: saline
[8] = endpoint: mean survival time, dose: 100.0 mg/kg/injection, schedule: Q01DX009 (ip), vehicle: saline with Tween-80
[9] = endpoint: mean survival time, dose: 200.0 mg/kg/injection, schedule: Q01DX009 (ip), vehicle: saline with Tween-80
[10] = endpoint: mean survival time, dose: 25.0 mg/kg/injection, schedule: Q01DX009 (ip), vehicle: saline with Tween-80
[11] = endpoint: mean survival time, dose: 50.0 mg/kg/injection, schedule: Q01DX009 (ip), vehicle: saline with Tween-80
[12] = endpoint: mean survival time, dose: 100.0 mg/kg/injection, schedule: Q04DX003 (ip), vehicle: saline
[13] = endpoint: mean survival time, dose: 200.0 mg/kg/injection, schedule: Q04DX003 (ip), vehicle: saline
[14] = endpoint: mean survival time, dose: 400.0 mg/kg/injection, schedule: Q04DX003 (ip), vehicle: saline
[15] = endpoint: mean survival time, dose: 50.0 mg/kg/injection, schedule: Q01DX009 (ip), vehicle: other
[16] = endpoint: mean survival time, dose: 100.0 mg/kg/injection, schedule: Q01DX009 (ip), vehicle: other
[17] = endpoint: mean survival time, dose: 200.0 mg/kg/injection, schedule: Q01DX009 (ip), vehicle: other
[18] = endpoint: mean survival time, dose: 200.0 mg/kg/injection, schedule: Q01DX009 (ip), vehicle: saline
[19] = endpoint: mean survival time, dose: 100.0 mg/kg/injection, schedule: Q04DX003 (ip), vehicle: saline with Tween-80
[20] = endpoint: mean survival time, dose: 200.0 mg/kg/injection, schedule: Q04DX003 (ip), vehicle: saline with Tween-80
[21] = endpoint: mean survival time, dose: 400.0 mg/kg/injection, schedule: Q04DX003 (ip), vehicle: saline with Tween-80

Measured: T/C

C[C@H](C[P+](c1ccccc1)(c1ccccc1)c1ccccc1)[C@](OC(=O)c1ccccc1)(C(=O)c1ccccc1)c1ccccc1
inactive: endpoint: mean survival time, dose: 1.25 mg/kg/injection, schedule: Q01DX009 (ip), vehicle: saline with Tween-80 101 % of control | endpoint: mean survival time, dose: 2.5 mg/kg/injection, schedule: Q01DX009 (ip), vehicle: saline with Tween-80 98 % of control | endpoint: mean survival time, dose: 5.0 mg/kg/injection, schedule: Q01DX001 (ip), vehicle: saline with Tween-80 103 % of control | [1] 98 % of control

Cc1ccc(C)c(NC(=O)NC2CCCCC2)c1
inactive: [2] 98 % of control | [3] 101 % of control | [4] 101 % of control

CC1(C)N=C(N)N=C(N)N1c1ccc(OCC(=O)N2CCOCC2)c(Cl)c1
inactive: endpoint: mean survival time, dose: 6.25 mg/kg/injection, schedule: Q01DX009 (ip), vehicle: saline 98 % of control | endpoint: mean survival time, dose: 12.5 mg/kg/injection, schedule: Q01DX009 (ip), vehicle: saline 97 % of control | [5] 92 % of control | [6] 98 % of control | [7] 98 % of control

CC1CCC(n2cnc3c(Cl)ncnc32)O1 (centres undefined)
inactive: endpoint: median survival time, dose: 12.5 mg/kg/injection, schedule: Q01DX009 (ip), vehicle: Klucel (hydroxypropylcellulose) (HPC) 97 % of control and 101 % of control | endpoint: median survival time, dose: 25.0 mg/kg/injection, schedule: Q01DX009 (ip), vehicle: Klucel (hydroxypropylcellulose) (HPC) 95 % of control and 100 % of control and 105 % of control | endpoint: median survival time, dose: 50.0 mg/kg/injection, schedule: Q01DX009 (ip), vehicle: Klucel (hydroxypropylcellulose) (HPC) 113 % of control and 93 % of control and 108 % of control | endpoint: median survival time, dose: 100.0 mg/kg/injection, schedule: Q01DX009 (ip), vehicle: Klucel (hydroxypropylcellulose) (HPC) 102 % of control and 108 % of control and 111 % of control | endpoint: median survival time, dose: 200.0 mg/kg/injection, schedule: Q01DX009 (ip), vehicle: Klucel (hydroxypropylcellulose) (HPC) 113 % of control (2×) and 114 % of control

NC(N)=NC(N)=Nc1ccc(Cl)cc1
inactive: [8] 104 % of control | [9] 106 % of control

COC(=O)C(F)C(Br)C(=O)OC (centres undefined)
inactive: endpoint: mean survival time, dose: 3.12 mg/kg/injection, schedule: Q01DX009 (ip), vehicle: saline with Tween-80 108 % of control | endpoint: mean survival time, dose: 6.25 mg/kg/injection, schedule: Q01DX009 (ip), vehicle: saline with Tween-80 97 % of control | endpoint: mean survival time, dose: 12.5 mg/kg/injection, schedule: Q01DX009 (ip), vehicle: saline with Tween-80 107 % of control | [10] 105 % of control | [11] 108 % of control

O=C(COc1ccc(Cl)c(Cl)c1)NCCc1cc[n+](Cc2ccc(Cl)cc2S(=O)(=O)F)cc1
inactive: [2] 89 % of control | [3] 89 % of control

O=C(N/N=C\c1cc(Cl)ccc1[N+](=O)[O-])c1ccccc1
inactive: endpoint: mean survival time, dose: 100.0 mg/kg/injection, schedule: Q01DX009 (ip), vehicle: Klucel (hydroxypropylcellulose) (HPC) 100 % of control | endpoint: mean survival time, dose: 200.0 mg/kg/injection, schedule: Q01DX009 (ip), vehicle: Klucel (hydroxypropylcellulose) (HPC) 91 % of control | endpoint: mean survival time, dose: 400.0 mg/kg/injection, schedule: Q01DX009 (ip), vehicle: Klucel (hydroxypropylcellulose) (HPC) 94 % of control

Cc1cccc(/C=C/c2cccc[n+]2[O-])[n+]1[O-]
inactive: [12] 103 % of control | [13] 96 % of control | [14] 96 % of control

CNC(=S)Nc1ccc(C(=O)NC(C)C)cc1
inactive: [15] 100 % of control | [16] 95 % of control | [17] 97 % of control

FC(F)Cc1cccc(C(F)(F)F)c1
inactive: [2] 107 % of control | endpoint: mean survival time, dose: 100.0 mg/kg/injection, schedule: Q04DX003 (ip), vehicle: saline sonified 98 % of control | [3] 103 % of control | endpoint: mean survival time, dose: 200.0 mg/kg/injection, schedule: Q04DX003 (ip), vehicle: saline sonified 100 % of control | [4] 104 % of control | endpoint: mean survival time, dose: 400.0 mg/kg/injection, schedule: Q04DX003 (ip), vehicle: saline sonified 100 % of control

CC(C)(O)C(=O)O
inactive: [6] 96 % of control | [7] 93 % of control | [18] 86 % of control

Cc1ccc2c([N+](=O)[O-])cccc2n1
inactive: [10] 93 % of control | [11] 96 % of control | [8] 104 % of control

O=S(=O)(N1CCCCC1)N1CCNCC1
inactive: [1] 98 % of control | endpoint: mean survival time, dose: 5.0 mg/kg/injection, schedule: Q04DX003 (ip), vehicle: saline with Tween-80 103 % of control | endpoint: mean survival time, dose: 10.0 mg/kg/injection, schedule: Q01DX009 (ip), vehicle: saline with Tween-80 98 % of control | endpoint: mean survival time, dose: 10.0 mg/kg/injection, schedule: Q04DX003 (ip), vehicle: saline with Tween-80 103 % of control | endpoint: mean survival time, dose: 20.0 mg/kg/injection, schedule: Q01DX009 (ip), vehicle: saline with Tween-80 96 % of control | endpoint: mean survival time, dose: 20.0 mg/kg/injection, schedule: Q04DX003 (ip), vehicle: saline with Tween-80 97 % of control

C1CC2CNC1CN2
inactive: [12] 96 % of control | [13] 98 % of control | [14] 94 % of control

CCOC(=O)c1c2c(n3ccccc13)C(=O)c1ccccc1C2=O
inactive: endpoint: mean survival time, dose: 75.0 mg/kg/injection, schedule: Q01DX001 (ip), vehicle: saline 97 % of control | endpoint: mean survival time, dose: 150.0 mg/kg/injection, schedule: Q01DX001 (ip), vehicle: saline 103 % of control | endpoint: mean survival time, dose: 300.0 mg/kg/injection, schedule: Q01DX001 (ip), vehicle: saline 105 % of control

COc1cc(NCc2ccccc2O)c2ncccc2c1
inactive: endpoint: mean survival time, dose: 50.0 mg/kg/injection, schedule: Q04DX003 (ip), vehicle: saline with Tween-80 91 % of control | [19] 91 % of control | [20] 91 % of control

O=C(NO)c1ccccc1
inactive: [5] 96 % of control | [6] 94 % of control | [2] 110 % of control | endpoint: mean survival time, dose: 100.0 mg/kg/injection, schedule: Q01DX009 (ip), vehicle: saline sonified 103 % of control | [7] 98 % of control and 109 % of control | [19] 98 % of control | [3] 103 % of control | endpoint: mean survival time, dose: 200.0 mg/kg/injection, schedule: Q01DX009 (ip), vehicle: saline sonified 115 % of control | [18] 121 % of control and 102 % of control | [20] 96 % of control | [4] 117 % of control | [21] 116 % of control

Cc1nc(C(N)=O)c(=O)[nH]c1C
inactive: endpoint: mean survival time, dose: 25.0 mg/kg/injection, schedule: Q04DX003 (ip), vehicle: saline 102 % of control | endpoint: mean survival time, dose: 50.0 mg/kg/injection, schedule: Q04DX003 (ip), vehicle: saline 107 % of control | [7] 111 % of control | [12] 101 % of control | [18] 100 % of control | endpoint: mean survival time, dose: 400.0 mg/kg/injection, schedule: Q01DX009 (ip), vehicle: saline 97 % of control

O=C(Nc1ccccc1[N+](=O)[O-])c1ccccc1
inactive: [2] 97 % of control | [19] 102 % of control | [3] 100 % of control | [20] 105 % of control | [4] 95 % of control | [21] 97 % of control

COc1ccccc1NC(=O)NC1C(OC(C)=O)OC(COC(C)=O)C(OC(C)=O)C1OC(C)=O (centres undefined)
inactive: endpoint: mean survival time, dose: 12.5 mg/kg/injection, schedule: Q01DX009 (ip), vehicle: other 93 % of control | endpoint: mean survival time, dose: 25.0 mg/kg/injection, schedule: Q01DX009 (ip), vehicle: other 94 % of control | [15] 98 % of control | [16] 94 % of control | [17] 93 % of control

CN(C)CCNC(=O)c1ccc(N)cc1
inactive: endpoint: mean survival time, dose: 100.0 mg/kg/injection, schedule: Q04DX002 (ip), vehicle: saline 102 % of control | endpoint: mean survival time, dose: 200.0 mg/kg/injection, schedule: Q04DX002 (ip), vehicle: saline 102 % of control

COc1ccc2nc3c(Cl)cccc3c(Oc3ccccc3)c2c1
inactive: [2] 94 % of control | [3] 92 % of control | [4] 101 % of control

CCOC(=O)/C=C/SCCCN
inactive: [12] 98 % of control | [13] 96 % of control

Cc1ccc(NC(=O)Oc2ccc(Br)cc2)cc1[N+](=O)[O-]
inactive: [11] 98 % of control | [8] 102 % of control | [9] 98 % of control

COCCCNc1ccc([N+](=O)[O-])cn1
inactive: endpoint: mean survival time, dose: 50.0 mg/kg/injection, schedule: Q01DX001 (ip), vehicle: carboxymethylcellulose (CMC) 100 % of control | endpoint: mean survival time, dose: 100.0 mg/kg/injection, schedule: Q01DX001 (ip), vehicle: carboxymethylcellulose (CMC) 100 % of control | endpoint: mean survival time, dose: 200.0 mg/kg/injection, schedule: Q01DX001 (ip), vehicle: carboxymethylcellulose (CMC) 108 % of control
